What follows are compounds tested against interaction between p53 and MDM2 proteins (Homo sapiens, UniProt Q00987) (assay: HTRF assay of inhibition of p53-MDM2 interaction (GST-MDM2 / biotinylated p53 peptide)). Details: recombinant GST-tagged MDM2 and biotinylated p53 peptide, 37° C. for 1 h.
Assay type: binding
Procedure: The ability of the compounds to inhibit the interaction between p53 and MDM2 proteins was measured by an HTRF (homogeneous time-resolved fluorescence) assay in which recombinant GST-tagged MDM2 binds to a peptide that resembles the MDM2-interacting region of p53 (Lane et al.). Binding of GST-MDM2 protein and p53-peptide (biotinylated on its N-terminal end) is registered by the FRET (fluorescence resonance energy transfer) between Europium (Eu)-labeled anti-GST antibody and streptavidin-conjugated Allophycocyanin (APC).
Test is performed in black flat-bottom 384-well plates (Costar) in a total volume of 40 uL containing: 90 nM biotinylate peptide, 160 ng/ml GST-MDM2, 20 nM streptavidin-APC (PerkinElmerWallac), […] Eu-labeled anti-GST-antibody (PerkinElmerWallac), 0.2% bovine serum albumin (BSA), 1 mM dithiothreitol (DTT) and 20 mM Tris-borate seine (TBS) buffer as follows: Add 10 uL of GST-MDM2 (640 ng/ml working solution) in reaction buffer to each well. Add 10 uL diluted compounds (1:5 dilution in reaction buffer) to each well, mix by shaking. Add 20 uL biotinylated p53 peptide (180 nM working solution) in reaction buffer to
each well and mix on shaker. Incubate at 37° C. for 1 h. Add 20 uL streptavidin-APC and Eu-anti-GST antibody mixture (6 nM Eu-anti-GST and 60 nM streptavidin-APC working solutions), in TBS buffer with 0.2% BSA, shake at room temperature for 30 minutes and read using a TRF-capable plate reader at 665 and 615 nm (Victor 5, Perkin ElmerWallac). If not specified, the reagents were purchased from Sigma, Chemical Co.

interaction between p53 and MDM2 proteins, sequence (Q00987 whole entry): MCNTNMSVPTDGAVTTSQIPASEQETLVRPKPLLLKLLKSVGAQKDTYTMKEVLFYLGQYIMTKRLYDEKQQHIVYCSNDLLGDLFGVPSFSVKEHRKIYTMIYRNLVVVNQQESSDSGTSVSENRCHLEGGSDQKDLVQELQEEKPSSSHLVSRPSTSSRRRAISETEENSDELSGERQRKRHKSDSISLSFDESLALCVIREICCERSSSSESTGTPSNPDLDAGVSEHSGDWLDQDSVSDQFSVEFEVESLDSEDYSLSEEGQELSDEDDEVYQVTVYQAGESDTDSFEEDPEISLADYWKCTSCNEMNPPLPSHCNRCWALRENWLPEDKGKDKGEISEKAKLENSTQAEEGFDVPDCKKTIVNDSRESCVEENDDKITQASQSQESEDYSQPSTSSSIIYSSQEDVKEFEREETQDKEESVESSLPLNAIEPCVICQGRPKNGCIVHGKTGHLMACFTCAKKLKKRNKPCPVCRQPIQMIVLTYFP

Structure (SMILES)	IC50 [nM]
Cc1ccc(F)cc1[C@H]1N2CC(=O)N(C)N=C2C[C@@H](c2cccc(Cl)c2)[C@]12C(=O)Nc1cc(Cl)ccc12 (racemic) [Example 1i, (6′R, 3R, 8′S)-6-chloro-8′-(3-chlorophenyl)-6′-(5-fluoro-2-methylphenyl)-2′-methyl-6′,7′,8′,9′-tetrahydro spiro[3H-indole-3,7′-(2H-pyrido[2,1-c][1,2,4]triazine)]-2,3′(1H)-dione]	191
C=C(CC)[C@H]1N2CC(=O)N(CCCN(C)C)N=C2C[C@@H](c2cccc(Cl)c2)[C@]12C(=O)Nc1cc(Cl)ccc12 (racemic) [Example 5b, (6′R, 3R, 8′S)-6-chloro-8′-(3-chlorophenyl)-2′-(3-dimethylaminopropyl)-6′-(1-methylene-propyl)-6′,7′,8′,9′-tetrahydro spiro[3H-indole-3,7′-(2H-pyrido[2,1-c][1,2,4]triazine)]-2,3′(1H)-dione]	100
C=C(CC)[C@H]1N2CC(=O)N(CCOC(C)=O)N=C2C[C@@H](c2cccc(Cl)c2)[C@]12C(=O)Nc1cc(Cl)ccc12 (racemic) [Example 7b, (6′R, 3R, 8′S)-2′-(2-acetoxyethyl)-6-chloro-8′-(3-chlorophenyl)-6′-(1-methylene-propyl)-6′,7′,8′,9′-tetrahydro spiro[3H-indole-3,7′-(2H-pyrido[2,1-c][1,2,4]triazine)]-2,3′(1H)-dione]	890
C=CCOc1ccc(I)cc1[C@H]1N2CC(=O)N(C)N=C2C[C@@H](c2cccc(Cl)c2)[C@]12C(=O)Nc1cc(Cl)ccc12 (racemic) [Example 18g, (6′R, 3R, 8′S)-6′-(2-allyloxy-5-iodo-phenyl)-6-chloro-8′-(3-chlorophenyl)-2′-methyl-6′,7′,8′,9′-tetrahydro spiro[3H-indole-3,7′-(2H-pyrido[2,1-c][1,2,4]triazine)]-2,3′(1H)-dione]	272
C=C(CC)[C@H]1N2CC(=O)N(CC(=O)NCCO)N=C2C[C@@H](c2cccc(Cl)c2)[C@]12C(=O)Nc1cc(Cl)ccc12 [Example 11c, (6′R, 3R, 8′S)-6-chloro-8′-(3-chlorophenyl)-2′-[(2-hydroxyethylamino)carbonyl-methyl]-6′-(1-methylene-propyl)-6′,7′,8′,9-tetrahydro spiro[3H-indole-3,7′-(2H-pyrido[2,1-c][1,2,4]triazine)]-2,3′(1H)-dione]	293
